Among the data in patent US20080242663A1, “NOVEL PYRIMIDINE DERIVATIVES 698” (ASTRAZENECA AB, priority 2007, published 2008) are IC50 values, retold here.

SMILES strings stand for the structures.

The experiment deals with T1, recombinant EphB4 (Homo sapiens, UniProt P54760).
T1 construct: amino acids 563-987; Swiss-Prot Acc; No. P54760; purchased ProQinase GmbH 0178-0000-3
T1 sequence (P54760 563-987): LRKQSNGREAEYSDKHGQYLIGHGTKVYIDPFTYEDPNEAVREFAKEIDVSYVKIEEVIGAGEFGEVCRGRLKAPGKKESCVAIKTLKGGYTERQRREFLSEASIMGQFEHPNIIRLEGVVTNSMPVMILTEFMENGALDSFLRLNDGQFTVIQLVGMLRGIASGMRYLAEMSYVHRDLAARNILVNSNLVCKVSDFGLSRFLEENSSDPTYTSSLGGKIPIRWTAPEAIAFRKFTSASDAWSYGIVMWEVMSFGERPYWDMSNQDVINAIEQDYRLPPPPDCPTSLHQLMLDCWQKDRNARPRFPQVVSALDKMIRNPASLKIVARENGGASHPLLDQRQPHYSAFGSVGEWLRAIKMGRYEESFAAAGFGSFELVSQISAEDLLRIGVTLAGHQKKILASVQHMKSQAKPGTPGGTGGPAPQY
The experiment can be described thus: In vitro EphB4 enzyme assay (Alphascreen). It counts as biochemical. On the procedure:
This assay detects inhibitors of EphB4-mediated phosphorylation of a polypeptide substrate using Alphascreen™ luminescence detection technology. Briefly, recombinant EphB4 was incubated with a biotinylated-polypeptide substrate (biotin-poly-GAT) in presence of magnesium-ATP. The reaction was stopped by addition of EDTA, together with streptavidin-coated donor beads which bind the biotin-substrate containing any phosphorylated tyrosine residues. Anti-phosphotyrosine antibodies present on acceptor beads bind to phosphorylated substrate, thus bringing the donor & acceptor beads into close proximity. Subsequent excitation of the donor beads at 680 nm generated singlet oxygen species that interact with a chemiluminescer on the acceptor beads, leading to light emission at 520-620 nm. The signal intensity is directly proportional to the level of substrate phosphorylation and thus inhibition is measured by a decrease in signal.
Assay plates were then incubated at room temperature for 1 hr. […] The plates were sealed under natural lighting conditions, wrapped in aluminium foil and incubated in the dark for a further 20 hrs.
The resulting assay signal was determined on the Perkin Elmer EnVision plate reader. The minimum value was subtracted from all values, and the signal plotted against compound concentration to generate IC50 data.
(In general: Alpha assays give light when donor and acceptor beads are brought close together.)
`CN(c1ccnc(Nc2cc(N3CCOCC3)cc(N3CCSCC3)c2)n1)c1ccc(F)c(Cl)c1F` [Example 1, N′-(3-chloro-2,4-difluoro-phenyl)-N′-methyl-N-(3-morpholin-4-yl-5-thiomorpholin-4-yl-phenyl)pyrimidine-2,4-diamine]: the IC50 (commonly the concentration that gives 50% inhibition) stood at 763 nM. For `CN(c1ccnc(Nc2cc(N3CCOCC3)cc(N3CCOCC3)c2)n1)c1ccc(F)c(Cl)c1F` [Example 2.1, N′-(3-chloro-2,4-difluoro-phenyl)-N-(3,5-dimorpholin-4-ylphenyl)-N′-methyl-pyrimidine-2,4-diamine] the value was 829 nM; for `CN(c1ccnc(Nc2cccc(N3CCOCC3)c2)n1)c1ccc(F)c(Cl)c1F` [Example 2.3, N′-(3-chloro-2,4-difluoro-phenyl)-N′-methyl-N-(3-morpholin-4-ylphenyl)pyrimidine-2,4-diamine], 304 nM. For `COc1cc(Nc2nccc(N(C)c3ccc(F)c(Cl)c3F)n2)cc(N2CCOCC2)c1` [Example 2.4, N′-(3-chloro-2,4-difluoro-phenyl)-N-(3-methoxy-5-morpholin-4-yl-phenyl)-N′-methyl-pyrimidine-2,4-diamine] the value was 348 nM. In the case of `CN(c1ccnc(Nc2cc(C#N)cc(N3CCOCC3)c2)n1)c1ccc(F)c(Cl)c1F` [Example 2.5, 3-[[4-[(3-chloro-2,4-difluoro-phenyl)-methyl-amino]pyrimidin-2-yl]amino]-5-morpholin-4-yl-benzonitrile], the IC50 was 937 nM. Take `CN(c1ccnc(Nc2cc(N3CCOCC3)cc(S(C)(=O)=O)c2)n1)c1ccc(F)c(Cl)c1F` [Example 2.6, N′-(3-chloro-2,4-difluoro-phenyl)-N′-methyl-N-(3-methylsulfonyl-5-morpholin-4-yl-phenyl) pyrimidine-2,4-diamine]: the IC50 stood at 447 nM.

In the case of `CN(c1ccnc(Nc2cc(CO)cc(N3CCOCC3)c2)n1)c1ccc(F)c(Cl)c1F` [Example 2.7, [3-[[4-[(3-chloro-2,4-difluoro-phenyl)-methyl-amino]pyrimidin-2-yl]amino]-5-morpholin-4-yl-phenyl] methanol], the 50% inhibitory concentration (IC50) stood at 117 nM. `CN(C)C(=O)c1cc(Nc2nccc(N(C)c3ccc(F)c(Cl)c3F)n2)cc(N2CCOCC2)c1` [Example 2.8, 3-[[4-[(3-chloro-2,4-difluoro-phenyl)-methyl-amino]pyrimidin-2-yl]amino]-N,N-dimethyl-5-morpholin-4-yl-benzamide]: the IC50 stood at 335 nM. With `COCCOc1cc(Nc2nccc(N(C)c3ccc(F)c(Cl)c3F)n2)cc(N2CCOCC2)c1` [Example 2.9, N′-(3-chloro-2,4-difluoro-phenyl)-N-[3-(2-methoxyethoxy)-5-morpholin-4-yl-phenyl]-N′-methyl-pyrimidine-2,4-diamine] the figure was 781 nM. On to `CN(c1ccnc(Nc2cc(N3CCC(O)CC3)cc(S(C)(=O)=O)c2)n1)c1ccc(F)c(Cl)c1F` [Example 2.11, 1-[3-[[4-[(3-chloro-2,4-difluoro-phenyl)-methyl-amino]pyrimidin-2-yl]amino]-5-methylsulfonyl-phenyl] piperidin-4-ol], for which the IC50 was 106 nM. For the molecule `CC(=O)N1CCN(c2cc(Nc3nccc(N(C)c4ccc(F)c(Cl)c4F)n3)cc(S(C)(=O)=O)c2)CC1` [Example 2.12, 1-[4-[3-[[4-[(3-chloro-2,4-difluoro-phenyl)-methyl-amino]pyrimidin-2-yl]amino]-5-methylsulfonyl-phenyl]piperazin-1-yl] ethanone], the IC50 was determined as 189 nM.

Turning to `CN(c1ccnc(Nc2cc(N3CCN(CCO)CC3)cc(S(C)(=O)=O)c2)n1)c1ccc(F)c(Cl)c1F` [Example 2.13, 2-[4-[3-[[4-[(3-chloro-2,4-difluoro-phenyl)-methyl-amino]pyrimidin-2-yl]amino]-5-methylsulfonyl-phenyl]piperazin-1-yl] ethanol], the IC50 worked out at 69.7 nM.

Regarding `COCc1cc(Nc2nccc(N(C)c3ccc(F)c(Cl)c3F)n2)cc(N2CCOCC2)c1` [Example 2.14, N′-(3-chloro-2,4-difluoro-phenyl)-N-[3-(methoxymethyl)-5-morpholin-4-yl-phenyl]-N′-methyl-pyrimidine-2,4-diamine], the IC50 worked out at 653 nM.

As to `CN(c1ccnc(Nc2cc(CN3CCOCC3)cc(N3CCOCC3)c2)n1)c1ccc(F)c(Cl)c1F` [Example 2.16, N′-(3-chloro-2,4-difluoro-phenyl)-N′-methyl-N-[3-morpholin-4-yl-5-(morpholin-4-ylmethyl)phenyl]py-rimidine-2,4-diamine], the IC50 amounted to 307 nM. On to `CN1CCN(Cc2cc(Nc3nccc(N(C)c4ccc(F)c(Cl)c4F)n3)cc(N3CCOCC3)c2)CC1` [Example 2.18, N′-(3-chloro-2,4-difluoro-phenyl)-N′-methyl-N-[3-[(4-methylpiperazin-1-yl)methyl]-5-morpholin-4-yl-phenyl] pyrimidine-2,4-diamine], for which the IC50 was 46.1 nM.

For `CN(c1ccnc(Nc2cc(CN3CCC(O)CC3)cc(N3CCOCC3)c2)n1)c1ccc(F)c(Cl)c1F` [Example 2.19, 1-[[3-[[4-[(3-chloro-2,4-difluoro-phenyl)-methyl-amino]pyrimidin-2-yl]amino]-5-morpholin-4-yl-phenyl]methyl]piperidin-4-ol], the 50% inhibitory concentration (IC50) amounted to 59.6 nM. With `CN1CCN(c2cc(Nc3nccc(N(C)c4ccc(F)c(Cl)c4F)n3)cc(S(C)(=O)=O)c2)CC1` [Example 3, N′-(3-chloro-2,4-difluoro-phenyl)-N′-methyl-N-[3-(4-methylpiperazin-1-yl)-5-methylsulfonyl-phenyl]pyrimidine-2,4-diamine] the figure was 65.1 nM; with `CN1CCN(c2cc(Nc3nccc(N(C)c4ccc(F)c(Cl)c4F)n3)cc(N3CCOCC3)c2)CC1` [Example 5, N′-(3-chloro-2,4-difluoro-phenyl)-N′-methyl-N-[3-(4-methylpiperazin-1-yl)-5-morpholin-4-yl-phenyl]pyrimidine-2,4-diamine], 424 nM; with `Cc1ccc(CO)cc1N(C)c1ccnc(Nc2cc(N3CCOCC3)cc(N3CCC(O)CC3)c2)n1` [Example 7.8, 1-[3-[[4-[[5-(hydroxymethyl)-2-methyl-phenyl]-methyl-amino]pyrimidin-2-yl]amino]-5-morpholin-4-yl-phenyl]piperidin-4-ol], 75.9 nM. Take `Cc1ccc(CO)cc1N(C)c1ccnc(Nc2cc(N3CCOCC3)cc(N3CC[C@H](O)C3)c2)n1` [Example 7.9, (3S)-1-[3-[[4-[[5-(hydroxymethyl)-2-methyl-phenyl]-methyl-amino]pyrimidin-2-yl]amino]-5-morpholin-4-yl-phenyl]pyrrolidin-3-ol]: the IC50 was 151 nM. With `Cc1ccc(CO)cc1N(C)c1ccnc(Nc2cc(N3CCOCC3)cc(N3CC[C@@H](O)C3)c2)n1` [Example 7.10, (3R)-1-[3-[[4-[[5-(hydroxymethyl)-2-methyl-phenyl]-methyl-amino]pyrimidin-2-yl]amino]-5-morpholin-4-yl-phenyl]pyrrolidin-3-ol] the figure was 13.5 nM. Take `Cc1ccc(CO)cc1N(C)c1ccnc(Nc2cc(C(=O)N(C)C)cc(N3CCOCC3)c2)n1` [Example 7.11, 3-[[4-[[5-(hydroxymethyl)-2-methyl-phenyl]-methyl-amino]pyrimidin-2-yl]amino]-N,N-dimethyl-5-morpholin-4-yl-benzamide]: the IC50 stood at 60.1 nM. `Cc1ccc(CO)cc1N(C)c1ccnc(Nc2cc(CO)cc(N3CCOCC3)c2)n1` [Example 7.13, [3-[[4-[[5-(hydroxymethyl)-2-methyl-phenyl]-methyl-amino]pyrimidin-2-yl]amino]-5-morpholin-4-yl-phenyl]methanol]: the half-inhibitory concentration (IC50) is 32.6 nM.

Regarding `Cc1ccc(CO)cc1N(C)c1ccnc(Nc2cc(C#N)cc(N3CCOCC3)c2)n1` [Example 7.15, 3-[[4-[[5-(hydroxymethyl)-2-methyl-phenyl]-methyl-amino]pyrimidin-2-yl]amino]-5-morpholin-4-yl-benzonitrile], the IC50 amounted to 195 nM. Turning to `Cc1ccc(CO)cc1N(C)c1ccnc(Nc2cc(N3CCOCC3)cc(N3CCOCC3=O)c2)n1` [Example 7.16, 4-[3-[[4-[[5-(hydroxymethyl)-2-methyl-phenyl]-methyl-amino]pyrimidin-2-yl]amino]-5-morpholin-4-yl-phenyl]morpholin-3-one], the half-inhibitory concentration (IC50) worked out at 22.2 nM. Regarding `Cc1ccc(CO)cc1N(C)c1ccnc(Nc2cc(N3CCOCC3)cc(N3CCOC[C@@H]3C)c2)n1` [Example 7.17, (S)-(4-methyl-3-(methyl(2-(3-(3-methylmorpholino)-5-morpholinophenyl-amino)pyrimidin-4-yl)amino)phenyl)methanol], the IC50 was 3.13 nM. With `Cc1ccc(CO)cc1N(C)c1ccnc(Nc2cc(N3CCOCC3)cc(N3CCOC[C@H]3C)c2)n1` [Example 7.18, (R)-(4-methyl-3-(methyl(2-(3-(3-methylmorpholino)-5-morpholinophenyl-amino)pyrimidin-4-yl)amino)phenyl)methanol] the figure was 6.45 nM.
